Measurements published in paper PMC11460631, “Inhibition of transient receptor potential vanilloid 3 channels by antimalarial hydroxychloroquine alleviates TRPV3-dependent dermatitis” (The Journal of Biological Chemistry, 2024).
Read-outs that look alike come from different tables or passages of the source.

Key:
[1] = target: T1, TRPV3 (Homo sapiens, UniProt Q8NET8); test: Whole-cell patch-clamp recordings of TRPV3 currents in transfected HEK293T cells; format: cell-based; conditions: for IC50: ± 80 mV
T1 construct: YFP or GFP; expressed in transfected cells; host or cells: HEK293T
T1 sequence (Q8NET8 1-790): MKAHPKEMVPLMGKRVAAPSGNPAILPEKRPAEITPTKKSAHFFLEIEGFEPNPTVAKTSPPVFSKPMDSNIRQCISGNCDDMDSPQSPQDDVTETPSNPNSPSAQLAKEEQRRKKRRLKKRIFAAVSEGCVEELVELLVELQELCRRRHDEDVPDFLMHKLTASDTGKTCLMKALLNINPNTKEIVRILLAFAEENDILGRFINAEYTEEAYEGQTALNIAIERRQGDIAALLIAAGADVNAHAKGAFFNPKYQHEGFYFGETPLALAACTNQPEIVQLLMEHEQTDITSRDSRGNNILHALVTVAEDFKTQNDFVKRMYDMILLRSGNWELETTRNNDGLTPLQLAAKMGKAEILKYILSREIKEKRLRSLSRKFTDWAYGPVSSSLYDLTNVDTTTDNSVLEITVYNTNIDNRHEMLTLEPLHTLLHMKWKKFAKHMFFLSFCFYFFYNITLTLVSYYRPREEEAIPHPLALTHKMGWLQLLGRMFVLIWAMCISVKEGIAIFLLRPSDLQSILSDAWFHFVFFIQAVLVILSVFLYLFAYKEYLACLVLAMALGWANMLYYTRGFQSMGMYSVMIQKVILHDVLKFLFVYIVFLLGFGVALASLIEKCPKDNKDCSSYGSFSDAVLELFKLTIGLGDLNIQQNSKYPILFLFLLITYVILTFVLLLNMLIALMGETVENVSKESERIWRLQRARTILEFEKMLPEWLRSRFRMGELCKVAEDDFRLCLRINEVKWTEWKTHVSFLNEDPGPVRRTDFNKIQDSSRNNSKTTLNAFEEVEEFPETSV
Experimental: (§1) HEK293T cells are cultured using Dulbecco's modified Eagle's medium containing 10% fetal bovine serum and 1% penicillin-streptomycin in a cell incubator with 5% CO2 at 37 °C. Plasmids of murine TRPV1, TRPV4, TRPM8, and human TRPV3, TRPA1 are labeled with YFP or GFP as indicators for subsequent electrophysiological recordings. Complementary DNA constructs of ion channels were transiently transfected with Lipofectamine 3000 (Invitrogen). And 12 to 18 h after transient transfection, electrophysiological recordings were performed.
(§2) Patch-clamp recordings were carried out with a HEKA EPC10 amplifier controlled by PatchMaster software (HEKA; https://www.heka.com/products/products_main.html#soft_pm) ([36]). Patch pipettes were prepared from borosilicate glass and fire-polished to the resistance of 3 to 8 MΩ by P-97 puller for whole-cell recordings. For single-channel recordings, patch pipettes were fire-polished to a higher resistance of 6 to 10 MΩ. Both bath solution and pipette solution contained 130 mM NaCl, 10 mM glucose, 0.2 mM EDTA, and 3 mM Hepes and were adjusted to pH 7.2 to 7.4 with NaOH. Whole-cell recordings and single-channel recordings were performed at ± 80 mV. The current was sampled at 10 kHz and filtered at 2.9 kHz. All recordings were performed at room temperature (25 °C). A gravity-driven system (RSC-200, Bio-Logic) with freely rotated perfusion tubes was used for the perfusion of ligands. Bath and ligand solutions were delivered through separate tubes to minimize the mixing of solutions. Patch pipette holding cells were placed in front of the perfusion tube outlet for perfusion.
All data from whole-cell recordings were analyzed in Igor Pro (WaveMetrics). IC50 values were determined by fitting the Hill equation to concentration-response relationships. Data are shown as mean ± SEM. Statistical significance between two groups was conducted with an unpaired two-tailed t test, and statistical significance among multiple groups was conducted with one-way ANOVA using Dunnett’s multiple comparisons test or Tukey's post hoc test. Differences were regarded as statistically significant with ∗, p < 0.05; ∗∗, p < 0.01; ∗∗∗, p < 0.001; ∗∗∗∗, and p < 0.0001; N.S., no significance.

[2] = target: T2, mTRPM8 (Mus musculus, UniProt Q8R4D5); test: Whole-cell current recordings, mTRPM8; format: cell-based, murine
T2 construct: YFP or GFP; expressed in transfected cells; host or cells: HEK293T
Experimental: To elucidate the specificity of HCQ inhibition on TRPV3, we conducted whole-cell current recordings on other known pruritus-related TRP channels, such as hTRPA1, mTRPV1, mTRPV4, and mTRPM8 (Fig. 3, A and F). […] Because of the relatively larger inhibition of HCQ on mTRPM8 current, we tested the concentration dependence of HCQ on mTRPM8 channels.
as §1
as §2, with “Patch pipette holding cells were placed in front of the perfusion tube outlet for perfusion.” left out
All data from whole-cell recordings were analyzed in Igor Pro (WaveMetrics). IC50 values were determined by fitting the Hill equation to concentration-response relationships. […]

T2 sequence (Q8R4D5 whole entry): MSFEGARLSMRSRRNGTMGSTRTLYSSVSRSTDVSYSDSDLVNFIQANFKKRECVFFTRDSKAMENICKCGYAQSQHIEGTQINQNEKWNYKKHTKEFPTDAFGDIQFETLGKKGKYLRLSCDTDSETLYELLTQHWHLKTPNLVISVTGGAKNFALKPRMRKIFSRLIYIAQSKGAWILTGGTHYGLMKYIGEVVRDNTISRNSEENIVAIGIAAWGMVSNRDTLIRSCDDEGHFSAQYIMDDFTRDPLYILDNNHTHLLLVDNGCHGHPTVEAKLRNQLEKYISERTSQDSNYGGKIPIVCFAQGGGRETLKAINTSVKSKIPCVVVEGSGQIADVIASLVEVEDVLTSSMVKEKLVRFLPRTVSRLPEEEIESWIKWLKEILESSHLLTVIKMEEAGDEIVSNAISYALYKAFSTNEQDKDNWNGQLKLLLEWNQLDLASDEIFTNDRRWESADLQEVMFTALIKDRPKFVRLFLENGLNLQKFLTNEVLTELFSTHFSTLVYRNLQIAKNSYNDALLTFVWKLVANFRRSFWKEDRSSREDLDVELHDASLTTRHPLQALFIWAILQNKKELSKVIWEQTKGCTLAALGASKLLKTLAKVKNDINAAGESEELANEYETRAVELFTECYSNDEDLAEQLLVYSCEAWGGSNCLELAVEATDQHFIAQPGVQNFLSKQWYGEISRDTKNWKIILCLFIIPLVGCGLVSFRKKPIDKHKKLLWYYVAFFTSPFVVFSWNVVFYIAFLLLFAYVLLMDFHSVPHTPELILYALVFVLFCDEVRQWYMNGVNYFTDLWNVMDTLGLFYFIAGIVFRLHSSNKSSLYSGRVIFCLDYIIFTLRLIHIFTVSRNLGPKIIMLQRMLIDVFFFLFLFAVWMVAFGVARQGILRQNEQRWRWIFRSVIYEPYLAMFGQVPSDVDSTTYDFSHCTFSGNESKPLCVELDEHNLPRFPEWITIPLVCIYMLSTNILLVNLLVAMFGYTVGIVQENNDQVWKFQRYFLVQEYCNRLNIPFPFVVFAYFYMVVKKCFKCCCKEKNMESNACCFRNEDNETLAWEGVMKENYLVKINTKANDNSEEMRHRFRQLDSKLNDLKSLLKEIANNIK

- IC50 ([1]; HEK293T cells expressing TRPV3, whole-cell, 1 mM 2-APB, read-out: IC50, inhibition of TRPV3 currents induced by 1 mM 2-APB): 51.7 ± 4.78 µM
- inhibition at 100 µM ([1]; HEK-293T, 100 μM HCQ, 1 mM 2-APB, read-out: inhibition of WT TRPV3 channels): 75.6%
- IC50 ([1]; whole-cell, 1 mM carvacrol, read-out: IC50, inhibition of TRPV3 current induced by carvacrol): 1.07 ± 0.38 µM
- reduction of mTRPM8 current ([2]; 100 μM HCQ, current activated by 1 mM menthol): 27.94% ± 10.91%
- IC50 ([2]; concentration dependence, whole-cell, read-out: IC50 on mTRPM8 channels): 263 ± 88.6 µM
- IC50 of mTRPM8 relative to IC50 of hTRPV3 ([2]; selectivity ratio): more than 5 fold
SMILES: CCN(CCO)CCCC(C)Nc1ccnc2cc(Cl)ccc12 (stereo not drawn) [HCQ, hydroxychloroquine]
